Data from publication PMC2678990, “Stilbene glycosides are natural product inhibitors of FGF-2-induced angiogenesis” (BMC Cell Biology, 2009).

Tests used:
[1] = test system: bovine aortic endothelial cells (BAEC); assay: Proliferation without growth factors (15% FBS); format: cell-based
Method: (§1) Cells were seeded in triplicate at a concentration of 6.0 × 10^5/ml, in 2 ml of complete medium in 6-well plates. […] […] Control wells were treated with 5 μl DMSO. Concentration ranges of test compounds and pre-incubation times were based on pilot studies. After 72 h, cells were washed in PBS, detached in 0.05%w/v trypsin in PBS, and counted on a Coulter counter (Coulter Electronics, Hialeah, FL) set to a threshold of 30 μm. Experiments were performed in triplicate and repeated at least twice.

[2] = test system: human dermal microvascular endothelial cells (HDMEC); assay: Proliferation without growth factors (15% FBS); format: cell-based
Method: as §1

[3] = test system: HDMEC; assay: VEGF-induced proliferation; format: cell-based, human; details: 72 h, NS = inhibition less than 50%
Method: (§2) Cells were seeded in triplicate at a concentration of 6.0 × 10^5/ml, in 2 ml of complete medium in 6-well plates. […] Growth factors, FGF-2 (25 ng/ml), EGF (75 ng/ml) and VEGF (10 ng/ml) and test compounds at different concentration were added and cells incubated for a further 72 h. Control wells were treated with 5 μl DMSO. Concentration ranges of test compounds and pre-incubation times were based on pilot studies. After 72 h, cells were washed in PBS, detached in 0.05%w/v trypsin in PBS, and counted on a Coulter counter (Coulter Electronics, Hialeah, FL) set to a threshold of 30 μm. Experiments were performed in triplicate and repeated at least twice.

[4] = test system: BAEC; assay: FGF-2-induced proliferation; format: cell-based, bovine; details: Bos taurus, FGF-2 25 ng/ml, 72 h, NS = inhibition less than 50%
Method: as §2

[5] = test system: HDMEC; assay: FGF-2-induced proliferation; format: cell-based; details: Homo sapiens, FGF-2 25 ng/ml, 72 h
Method: as §2

[6] = test system: BAEC; assay: FGF-2-induced migration in wound healing model; format: cell-based, bovine; details: Bos taurus, FGF-2 25 ng/ml, 18 h
Method: Cells (6 × 10^4/ml) were added to a Thermanox cover slip in a 24-well plate in complete medium and incubated for 24–48 h. When confluent, the medium was replaced with DMEM containing 0.1% FCS and incubated for a further 48 h. Cover slips were washed (PBS, × 3), wounded with a sterile razor to produce a straight edged cut and washed in PBS to remove dislodged cells. Cover slips were added to a fresh 24-well plate in 0.1% FCS and incubated with FGF-2 (or other growth factors) and a range of concentrations of test compounds for 18 h. Under these conditions, there was negligible proliferation but measurable migration. Slides were fixed in ethanol (100%), stained with methylene blue and photographed. For each slide, 10 fields of view (2 mm × 1.45 mm) were counted at random. Each experiment was performed in triplicate and at least twice.

[7] = test system: HDMEC; assay: FGF-2-induced chemotaxis, Boyden chamber assay; format: cell-based; details: Homo sapiens, 6 h, FGF-2 25 ng/ml
Method: The effect of compounds 1 and 2 on cell migration was examined in vitro using a modified Boyden chamber system with 8.0 μm pore polycarbonate filter inserts (TSL, UK). The filter was coated overnight with 0.1%w/v gelatine, and air-dried. Cells (1 × 10^5) were placed in the upper part of the filter and test compounds at different concentrations with and without growth factors were added to the lower part in SPM. Cells were incubated at 37°C for 6 h and the filter removed and the upper side containing non migrated cells wiped and rinsed. The filters were fixed (4% paraformaldehyde), and stained (Geimsa) and cell migration in duplicate wells was determined by counting cell numbers on the lower surface. Experiments were performed in triplicate and at least two times.

[8] = test system: BAEC; assay: FGF-2 invasion in Matrigel; format: cell-based, bovine; details: Bos taurus, FGF-2 25 ng/ml
Method: The effect of the test compounds on cell invasion was investigated using a Transwell Boyden chamber system coated with reconstituted growth factor-depleted Matrigel. […] Representative photomicrographs for the effect of compound 1 are shown (Figure 7B).
Figure 7 The effect of compounds 1 (AI) and 2 (AII) on BAEC invasion into a Matrigel layer was studied using the chemoinvasion assay described below. Cells (1.7 × 10^4) were added to the Matrigel coated upper Boyden chamber and the compounds with or without FGF-2 added to the lower chamber. Cell invasion was measured after 24 h and assessed as described below. […] Results are the mean of three experiments. (B) Representative photomicrographs are shown for the effect of compound 1 on BAEC (original magnification × 20).
The procedure described above was repeated and wells having a uniform network of tubes were used to assess invasion into a second layer of Matrigel. Matrigel (100 μl), with and without the test compounds was added to the cells and allowed to polymerise (1 h at 37°C). FCS (15%) was added and the cells incubated for 24–72 h when tube growth into the upper layer was measured as described above.

[9] = test system: HDMEC; assay: FGF-2 invasion in Matrigel; format: cell-based, human; details: Homo sapiens, FGF-2 25 ng/ml
[10] = test system: BAEC; assay: Regression of established tubular networks; format: cell-based, bovine; details: Bos taurus, established FGF-2 tubular network, 24 h
Method: Tube regression under the influence of the test compounds was also investigated. Cell suspensions were mixed with Matrigel supplemented with FGF-2 (25 ng/ml) in 15% FCS as described above.

[11] = test system: VEGF receptor; assay: ELISA binding assay of VEGF to soluble receptor; details: results not shown
Method: Competition between growth factors, their cell surface receptors and test compounds was assessed in an ELISA assay as described by. A 96-well plate was coated overnight with 2 μg/ml of the soluble receptors (FGFR-1 or -2 and VEGFR-1 or -2) and blocked with 1% BSA in PBS containing 0.05% Tween-20. The test compound and FGF-2 or VEGF were pre-mixed for 2 h and added to the plate and incubated for 2 h. The plate was washed (× 3 with PBS-Tween-20) and incubated with anti-FGF-2 IgG (1:500 in PBS-Tween-20) or anti-VEGF IgG (!:250 in PBS-Tween-20) for 45 min, washed and incubated with horseradish peroxidase conjugated goat anti-IgG (Santa Cruz, 1:1000) for a further 45 min. After washing (× 3), ABTS peroxidase substrate was added and the absorbance read at 405 nm. IC50 values were calculated from the data using the EZ-Fit enzyme kinetic software (Perella Scientific Inc., Amherst, USA).

- IC50 [6]: 41.8 ± 0.95 µM
- IC50 [7]: 21.5 ± 0.6 µM
- IC50 [8]: 11.1 ± 0.28 µM
- IC50 [9]: 5.8 ± 0.18 µM
- IC50 [10]: 40 ± 0.2 µM
- Effect on binding to the VEGF receptor [11]: did not bind
Structure (SMILES): COc1cc(C=Cc2ccc(O)cc2)cc(OC2OC(COC3OC(C)C(O)C(O)C3O)C(O)C(O)C2OC2OC(C)C(O)C(O)C2O)c1 (centres unmarked) [Compound 1]
- Effect on growth in the absence of growth factors ([1]; 1.4–71.5 μM): no significant effect
- IC50 ([1]; Bos taurus, NS = overall inhibition less than 50%): > 71.5 µM
- Effect on growth in the absence of growth factors ([2]; 1.4–71.5 μM): no significant effect
- IC50 ([2]; Homo sapiens, Endothelial cell, NS = overall inhibition less than 50%): > 71.5 µM
- VEGF-induced proliferation, IC50 [3]: no significant inhibitory effect
- IC50 ([3]; Homo sapiens): > 71.5 µM
- IC50 [4]: 48.9 ± 0.4 µM
- IC50 [5]: 42 ± 0.93 µM
